The source of these data is patent US4918099A, “Drug, preparation and use thereof” (priority 1985, dated 1990).

For one test, the system named is prostacyclin synthetase. The settings on record: conventional prostaglandin synthesis inhibitors; cited from earlier work.
Test [1] concerns platelet aggregation in normal human plasma. Briefly: Platelet aggregation in normal human plasma induced by ADP. The test is classed as cell-based. The settings on record: for T/min, Aggregation (first value) / Tmax, Aggregation (first value): control 75.1; for activity at 1000 µM / inhibition at 1000 µM / activity at 100 µM / inhibition at 100 µM: Homo sapiens, Platelet; for activity at 1000 µM / activity at 100 µM: control 100. The method, then:
(§1) The platelet aggregation was determined by a tubimetric method in a dual-channel aggregometer, assuming that a platelet-poor plasma represented 100% aggregation and that a platelet-rich plasma represented 0% aggregation. Each aggregometer tube was charged with 40 μl of platelet-rich plasma and 50 μl of test sample solution. The mixture was incubated at 37° C. for 2 min., whereupon 50 μl of ADP solution were added. Percent inhibition of the platelet aggregation caused by the test sample solution was calculated as follows: [formula]

The test system of test [2] is platelet aggregation in diabetic human plasma. Briefly: Platelet aggregation in diabetic human plasma induced by ADP. The test is classed as cell-based. As to conditions: for activity at 1000 µM / inhibition at 1000 µM / activity at 100 µM / inhibition at 100 µM: Homo sapiens, Platelet; for activity at 1000 µM / activity at 100 µM: control 100. The method, then: as §1

The subject of a further test is cyclo-oxygenase. As to conditions: conventional prostaglandin synthesis inhibitors; cited from earlier work.
The next test relates to plasmalipid. As to conditions: spontaneously hypertensive rats; Fette-Seifen-Anstrichmittel 87, 74-76 (1985); cited from earlier work.
The nature of test [3]: Comparison of synthetic substances with full extract. The settings on record: synthetically prepared substance.
For test [4] the following is noted: Rev. Latinoam. Microbiol. 1, 225-232 (1958); cited from earlier work.
For test [5] the following is noted: Planta Med. 31, 214-220 (1977); cited from earlier work.
Test [6] has as its system lipid peroxidation in the mitochondria of rat liver. The settings on record: Arch. Pharm. Res. 7, 63-64, 1984; cited from earlier work.
A short description of test [7]: Increase of the peripheral insulin action in diabetic mice. The settings on record: 0.46 mU/g, control group (FIG. 5). Type of test: in vivo. The method, then:
Diabetic mice were divided into a control group and a test group. A dose of 100 mg of brazilin per kg body weight was daily administered to the animals of the test group; instead of brazilin, the same amount of saline solution was injected intraperitoneally to the animals of the control group.
After 30 test days, the body weight of the animals of the test group was higher and the blood sugar values of these animals were lower as compared to the diabetic animals of the control group.
On the 30th test day, the animals were made to fast for 5 h; thereupon, they were injected intravenously with 0.46 mU/g of NPH insulin. Then, the blood sugar values were measured at respective intervals of 5 min.

[8] abbreviates: 10^-3 M, read-out: T/min, Aggregation relative to control (second value).
Where [9] appears, read: 10^-3 M, read-out: Tmax, Aggregation relative to control (second value).
The mark [10] stands for this setting: 10^-3 M, read-out: T/min, Inhibition.
[11] abbreviates: 10^-3 M, read-out: Tmax, Inhibition.
The mark [12] stands for this setting: 10^-4 M, read-out: T/min, Aggregation relative to control (second value).
Setting [13] is: 10^-4 M, read-out: Tmax, Aggregation relative to control (second value).
Setting [14] is: 10^-4 M, read-out: T/min, Inhibition.
Setting [15] is: 10^-4 M, read-out: Tmax, Inhibition.

Read-outs that look alike come from different tables or passages of the source.

Regarding `CC(=O)Oc1ccccc1C(=O)O` [acetylsalicylic acid, reference compound], the “inhibition of prostacyclin synthetase” value with prostacyclin synthetase is “prostacyclin synthetase is also undesirably inhibited”. Further, the entries for the “T/min, Aggregation (first value)” value in test [1] (10^-3 M) and in test [1] (10^-4 M) were 11.9% and 17.4%, respectively. Further, the “Tmax, Aggregation (first value)” value was 37.5% in test [1] (10^-3 M); 60.2% in test [1] (10^-4 M); 70.0% in test [2] (10^-3 M, control 78.7); 73.8% in [2] (10^-4 M, control 78.7). Also, the activity at 1000 µM in test [1] (setting [8]) came to 15.8%; in test [1] (setting [9]), 49.9%; in test [2] (setting [9]), 88.9%. In addition, the inhibition at 1000 µM in [1] (setting [10]) turned out to be 84.6%; in test [1] (setting [11]) it was 50.1%; in [2] (setting [11]), 11.1%. In addition, the activity at 100 µM in test [1] (setting [12]) was determined as 23.2%; in test [1] (setting [13]), 80.1%; in test [2] (setting [13]) it was 93.6%. Further, the inhibition at 100 µM amounted to 76.8% in test [1] (setting [14]), 19.9% in test [1] (setting [15]) and 6.4% in test [2] (setting [15]). Further, in the test with cyclo-oxygenase, the inhibition of cyclo-oxygenase entry was “inhibit the activity of cyclo-oxygenase”.

Regarding `Oc1cc2c(cc1O)[C@@H]1c3ccc(O)c(O)c3OC[C@]1(O)C2` [hematoxylin], the plasmalipid-reducing effect entry with plasmalipid is given as “plasmalipid-reducing effect”. Also, the “effects compared with administration of major amounts of full extract” value in test [3] is on record as “substantially has the same effects”. Further, the “T/min, Aggregation (first value)” value in [1] (10^-3 M) was 11.7%; in test [1] (10^-4 M), 58.8%; in [2] (10^-3 M, control 78.7), 7.5%. Moreover, the “Tmax, Aggregation (first value)” value is on record as 22.6% in test [1] (10^-3 M); 68.1% in test [1] (10^-4 M); 52.5% in test [2] (10^-3 M, control 78.7); 76.3% in test [2] (10^-4 M, control 78.7). In addition, the activity at 1000 µM was found to be 15.6% in test [1] (setting [8]), 30.8% in [1] (setting [9]), 9.5% in test [2] (setting [8]) and 66.5% in test [2] (setting [9]). Also, the inhibition at 1000 µM in test [1] (setting [10]) was 84.4%; in test [1] (setting [11]) it was 69.8%; in test [2] (setting [10]) it was 90.5%; in [2] (setting [11]) it was 33.5%. The activity at 100 µM in test [1] (setting [12]) turned out to be 78.4%; in test [1] (setting [13]) it was 90.6%; in test [2] (setting [13]), 96.8%. Besides, the inhibition at 100 µM in [1] (setting [14]) was 21.7%; in test [1] (setting [15]), 9.4%; in test [2] (setting [15]), 3.2%. Further, the antibacterial effect entry in test [4] is given as “antibacterial effect”. Also, the “inhibition of the platelet aggregation” value in [2] (conclusion on Tables 12 and 13) was “considerable inhibition of the platelet aggregation”. Also, the anti-inflammatory effect result in test [5] is recorded as “anti-inflammatory effect”. Also, the “effect on lipid peroxidation in mitochondria of rat liver” value in test [6] is listed as “effect on the lipid peroxidation”.

With `COc1ccc2c(c1)c(CC(=O)O)c(C)n2C(=O)c1ccc(Cl)cc1` [indomethacin], in the test with prostacyclin synthetase, the “inhibition of prostacyclin synthetase” value was “prostacyclin synthetase is also undesirably inhibited”. In addition, the inhibition of cyclo-oxygenase result in the test with cyclo-oxygenase is listed as “inhibit the activity of cyclo-oxygenase”.

As to NPH insulin [reference compound], in test [7], the “blood sugar after i.v. NPH insulin in diabetic control mice” value is “cannot significantly change the blood sugar value”.
